From article PMC10765413, “Correlating Conformational Equilibria with Catalysis in the Electron Bifurcating EtfABCX of Thermotoga maritima” (Biochemistry, 2023)
Like-named read-outs stand apart in the source and are kept apart here. One block for each molecule: values may come before it.

Legend:
[1] = molecular target: T1, EtfABCX (Thermotoga maritima, UniProt Q9X1L6+Q9X1L7+Q9X1L8); test: FAD released by […] SDS and quantified by absorbance; assay type: binding; conditions: co-purified; BF-FAD in EtfA, ET-FAD in EtfB, QR-FAD in EtfC
T1 construct: gene TM_1530; operon in pET-21a(+), N-terminal 9xHis tag, E. coli BL21(DE3) deltaiscR, anaerobic purification; superdimer (ABCX)2, 257 kDa, three FAD per supermonomer; with Ferredoxin-like protein FixX (EtfX; two [4Fe-4S] clusters)
T1 sequence (Q9X1L6 2-285): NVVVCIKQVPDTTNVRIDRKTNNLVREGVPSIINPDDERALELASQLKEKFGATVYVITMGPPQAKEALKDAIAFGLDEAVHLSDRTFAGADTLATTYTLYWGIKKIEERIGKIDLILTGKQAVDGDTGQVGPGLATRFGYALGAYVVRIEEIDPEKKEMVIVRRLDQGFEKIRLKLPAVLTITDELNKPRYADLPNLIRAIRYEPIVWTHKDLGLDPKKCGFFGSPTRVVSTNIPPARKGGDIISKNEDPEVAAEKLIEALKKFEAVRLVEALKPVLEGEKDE
T1 sequence (Q9X1L7 1-338): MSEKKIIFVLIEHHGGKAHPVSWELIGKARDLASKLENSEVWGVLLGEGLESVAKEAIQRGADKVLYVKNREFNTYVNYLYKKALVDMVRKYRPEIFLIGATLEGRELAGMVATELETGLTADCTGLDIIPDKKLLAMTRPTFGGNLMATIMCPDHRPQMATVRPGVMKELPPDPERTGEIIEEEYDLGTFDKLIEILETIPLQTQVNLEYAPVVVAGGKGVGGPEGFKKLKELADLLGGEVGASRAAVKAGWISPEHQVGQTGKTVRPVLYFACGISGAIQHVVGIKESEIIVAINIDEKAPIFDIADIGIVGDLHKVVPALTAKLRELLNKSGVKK
T1 sequence (Q9X1L8 1-438): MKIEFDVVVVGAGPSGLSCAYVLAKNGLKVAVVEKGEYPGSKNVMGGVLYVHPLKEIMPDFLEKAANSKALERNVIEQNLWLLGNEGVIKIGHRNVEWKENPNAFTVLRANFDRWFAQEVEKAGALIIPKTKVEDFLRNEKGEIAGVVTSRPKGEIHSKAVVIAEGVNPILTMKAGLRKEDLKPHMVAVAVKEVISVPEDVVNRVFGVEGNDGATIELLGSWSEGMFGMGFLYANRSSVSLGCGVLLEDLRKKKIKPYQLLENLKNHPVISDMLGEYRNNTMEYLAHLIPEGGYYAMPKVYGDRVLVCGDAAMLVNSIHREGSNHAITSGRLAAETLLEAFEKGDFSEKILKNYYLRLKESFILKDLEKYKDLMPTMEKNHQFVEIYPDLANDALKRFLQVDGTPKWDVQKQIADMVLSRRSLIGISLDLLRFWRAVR
T1 sequence (Q9X1L9 1-92 partner): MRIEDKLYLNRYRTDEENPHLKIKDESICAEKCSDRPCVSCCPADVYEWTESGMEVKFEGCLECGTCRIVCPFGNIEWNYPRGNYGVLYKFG

[2] = molecular target: T2, EtfAB (Thermotoga maritima, UniProt Q9X1L6+Q9X1L7); test: FAD released by […] SDS and quantified by absorbance; assay type: binding; conditions: co-purified; BF-FAD site in EtfA and ET-FAD site in EtfB
T2 construct: gene TM_1530; recombinant EtfAB heterodimer from E. coli BL21(DE3) deltaiscR, 9xHis tag, 69 kDa expected, two FAD per heterodimer, purified anaerobically
T2 sequence (Q9X1L6 entry or part of it): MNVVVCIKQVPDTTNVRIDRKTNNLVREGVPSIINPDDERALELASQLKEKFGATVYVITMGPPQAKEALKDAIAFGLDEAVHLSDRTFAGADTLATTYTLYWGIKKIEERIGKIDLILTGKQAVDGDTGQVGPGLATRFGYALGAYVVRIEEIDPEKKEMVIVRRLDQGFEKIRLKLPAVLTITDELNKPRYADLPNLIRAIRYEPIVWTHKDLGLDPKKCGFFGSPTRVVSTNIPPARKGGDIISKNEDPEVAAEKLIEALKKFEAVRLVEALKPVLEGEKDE
T2 sequence (Q9X1L7 entry or part of it): as the sequence (Q9X1L7 1-338) above

[3] = molecular target: T2, EtfAB; test: anaerobic SEC-SAXS with in-line UV-visible spectroscopy (flavin reduction, compaction); assay type: binding; conditions: 20 mM Tris-HCl pH 8.0, 200 mM NaCl, room temperature
[4] = molecular target: T1, EtfABCX; test: anaerobic SEC-MALS-SAXS with in-line UV-visible spectroscopy; assay type: binding; conditions: NAD+ in running buffer, 20 mM Tris-HCl pH 8.0, 200 mM NaCl, 0.01% DDM
[5] = molecular target: Thermotoga maritima Fix/EtfABCX supermonomer (ABCX heterotetramer protomer) (Thermotoga maritima); test: SEC-MALS + other: SEC-SAXS; anaerobic SEC-MALS-SAXS of purified EtfABCX; KW-803 column, room temperature, 0.65 mL/min; 20 mM Tris-HCl pH 8.0, 200 mM NaCl with 0.01% DDM (also buffer only); no additive, NADH, NAD+ or DT in the running buffer
[6] = molecular target: Thermotoga maritima Fix/EtfABCX supermonomer (ABCX heterotetramer protomer) (Thermotoga maritima); test: as above; remark: listed apart in the source

Molecule: Cc1cc2nc3c(=O)[nH]c(=O)nc-3n(C[C@H](O)[C@H](O)[C@H](O)COP(=O)(O)OP(=O)(O)OC[C@H]3O[C@@H](n4cnc5c(N)ncnc54)[C@H](O)[C@@H]3O)c2cc1C [FAD]
FAD released by 1% SDS and quantified by absorbance [1]: approximately three and two molecules of FAD per EtfABCX supermonomer and EtfAB heterodimer, respectively | FAD released by 1% SDS and quantified by absorbance [2]: approximately three and two molecules of FAD per EtfABCX supermonomer and EtfAB heterodimer, respectively

Molecule: NC(=O)C1=CN([C@@H]2O[C@H](COP(=O)(O)OP(=O)(O)OC[C@H]3O[C@@H](n4cnc5c(N)ncnc54)[C@H](O)[C@@H]3O)[C@@H](O)[C@H]2O)C=CC1 [NADH]
anaerobic SEC-SAXS with in-line UV-visible spectroscopy (flavin reduction, compa) ([3]; excess NADH in running buffer): EtfAB in the presence of excess NADH indicated that its FAD cofactors were fully reduced

Molecule: NC(=O)c1ccc[n+]([C@@H]2O[C@H](COP(=O)(O)OP(=O)(O)OC[C@H]3O[C@@H](n4cnc5c(N)ncnc54)[C@H](O)[C@@H]3O)[C@@H](O)[C@H]2O)c1 [NAD^+]
anaerobic SEC-MALS-SAXS with in-line UV-visible spectroscopy [4]: likely due to the formation of an EtfABCX-NAD^+ complex | anaerobic SEC-SAXS with in-line UV-visible spectroscopy (flavin reduction, compa) ([3]; excess NAD+ in running buffer, as-purified enzyme): EtfAB in the presence of NAD^+ led the enzyme into a more extended state

stoichiometry N [5]: 4 | stoichiometry N [6]: 2
Molecule: Thermotoga maritima Fix/EtfABCX supermonomer (ABCX heterotetramer protomer) (complex)
